Drawing on ChEMBL document CHEMBL1136043, “Synthesis of (+)-Lasonolide A: (-)-lasonolide A is the biologically active enantiomer” (2002), this text covers GI50 for six compounds.

The GI50 is the concentration at which growth is held to half of that of the control.

Structures are written as SMILES.

Common to all, as to assay type: functional
One assay relates to NCI-H460. Put plainly: Concentration required for growth inhibition of human lung carcinoma cell line NCI-H460.
The subject of another assay is A549. Put plainly: Concentration required for growth inhibition of human lung carcinoma cell line A549.
The test system of a further assay is HCT-116. Description: Concentration required for growth inhibition human of human colon cancer cell line HCT116.

Turning to `C=C(CCC(C)C)COC(=O)[C@@H](O)C/C=C\C[C@H]1O[C@H]2/C=C/C/C=C/C(C)=C\[C@@H]3O[C@H](C/C=C/C=C/C(=O)O[C@@H](C2)[C@]1(C)CO)C[C@@H](O)[C@@H]3C`, the GI50 was 3000 nM in the assay with NCI-H460, 6000 nM in the assay with A549 and 2000 nM in the assay with HCT-116.
The matching figures for `C=C(CCC(C)C)COC(=O)[C@H](O)C/C=C/C[C@@H]1O[C@@H]2/C=C/C/C=C/C(C)=C\[C@H]3O[C@@H](C/C=C/C=C/C(=O)O[C@H](C2)[C@@]1(C)CO)C[C@H](O)[C@H]3C`: 40 nM, 2000 nM and 20 nM.
For the compound `C=C(CCC(C)C)COC(=O)[C@@H](O)C/C=C\C[C@@H]1O[C@@H]2/C=C\C/C=C/C(C)=C\[C@H]3O[C@@H](C/C=C/C=C/C(=O)O[C@H](C2)[C@@]1(C)CO)C[C@H](O)[C@H]3C`, the concentration for 50% growth inhibition (GI50) is 5000 nM in the assay on NCI-H460, more than 10000 nM with A549 and 5000 nM with HCT-116.
Consider `C=C(CCC(C)C)COC(=O)[C@@H](O)C/C=C\C[C@@H]1O[C@@H]2/C=C/C/C=C/C(C)=C\[C@H]3O[C@@H](C/C=C/C=C/C(=O)O[C@H](C2)[C@@]1(C)CO)C[C@H](O)[C@H]3C`, for which the GI50 in the assay on NCI-H460 was 9 nM; in the assay on A549, 50 nM; in the assay with HCT-116 it was less than 3 nM.
Regarding `C=C(CCC(C)C)COC(=O)[C@@H](O)C/C=C/C[C@@H]1O[C@@H]2/C=C/C/C=C/C(C)=C\[C@H]3O[C@@H](C/C=C/C=C/C(=O)O[C@H](C2)[C@@]1(C)CO)C[C@H](O)[C@H]3C`, the GI50 in the assay on NCI-H460 came out at 100 nM; in the assay with A549, 3200 nM; in the assay with HCT-116 it was 40 nM.
The matching figures for `C=C(CCC(C)C)COC(=O)[C@H](O)C/C=C\C[C@@H]1O[C@@H]2/C=C/C/C=C/C(C)=C\[C@H]3O[C@@H](C/C=C/C=C/C(=O)O[C@H](C2)[C@@]1(C)CO)C[C@H](O)[C@H]3C` [LASONOLIDE A]: less than 3 nM, 20 nM and less than 3 nM.
